Consider 13 compounds from patent US7101878B1 (Agouron Pharmaceuticals, Inc., priority 1998, dated 2006).

Data set [1] concerns the target T1, hGnRH receptor (Homo sapiens, UniProt P30968).
T1 construct: expressed in transfected cells; host or cells: HEK 293 (hGnRH-R/293, from Dr. Stuart Sealfon)
T1 sequence (P30968 1-328): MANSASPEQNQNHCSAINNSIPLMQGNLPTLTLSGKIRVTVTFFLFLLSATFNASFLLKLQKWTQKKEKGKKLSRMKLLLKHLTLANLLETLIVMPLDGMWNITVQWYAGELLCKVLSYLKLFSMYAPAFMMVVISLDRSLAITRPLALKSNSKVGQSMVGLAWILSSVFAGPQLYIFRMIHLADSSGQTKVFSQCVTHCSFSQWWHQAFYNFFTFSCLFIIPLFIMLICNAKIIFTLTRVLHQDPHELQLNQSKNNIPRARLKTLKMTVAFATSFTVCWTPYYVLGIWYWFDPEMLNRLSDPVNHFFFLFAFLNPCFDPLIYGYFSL
The data set can be described thus: Total inositol phosphates measurement, 293 cells containing the hGnRH receptor. The class given is cell-based. Conditions: for GnRH functional: no species or readout annotated. Here is the method: To assess the activity of the compounds as agonists or antagonists, an assay measuring accumulation of total inositol phosphates was employed. 293 cells containing the hGnRH receptor were plated onto 24-well plates (approximately 200,000 cells/well) using DMEM media. […] The medium was aspirated and the cells rinsed with serum-free DMEM. The medium was aspirated and the cells were then treated with test compounds or vehicle for 30 minutes at 37° C. […] The media was replaced with ice-cold 10 mM formic acid, which stopped the reaction and also served to extract cellular lipids. Inositol phosphates were separated by ion-exchange chromatography on Dowex columns, which were washed with 2.5 mL of 10 mM myoinositol and 10 mM formic acid. The columns were then washed with 5 mL of 60 mM sodium formate and […], and total inositol phosphates were eluted with 5 mL 1M ammonium formate, 0.1 M formic acid. The column eluates were added to liquid scintillation vials containing 15 ml of scintillation cocktail and were counted by liquid scintillation counting.
This cell line was provided by Dr. Stuart Sealfon, Mount Sinai Medical School New York, N.Y. These cells were grown in DMEM supplemented with 0.2 g/L G418 100 U/ml penicillin/streptomycin and 10% FBS. Both GGH3 and hGnRH-R/293 cells were utilized for both for both total inositol phosphate measurement and for microphysiometry assessment of compound efficacy.

In data set [2] the target is 5-HT2a (Homo sapiens, UniProt P28223). The data set can be described thus: Selectivity: 5-HT2a.
For data set [3], the target named is T2, ILRA (CXCR-1) (Homo sapiens, UniProt P25024).
T2 sequence (P25024 1-350): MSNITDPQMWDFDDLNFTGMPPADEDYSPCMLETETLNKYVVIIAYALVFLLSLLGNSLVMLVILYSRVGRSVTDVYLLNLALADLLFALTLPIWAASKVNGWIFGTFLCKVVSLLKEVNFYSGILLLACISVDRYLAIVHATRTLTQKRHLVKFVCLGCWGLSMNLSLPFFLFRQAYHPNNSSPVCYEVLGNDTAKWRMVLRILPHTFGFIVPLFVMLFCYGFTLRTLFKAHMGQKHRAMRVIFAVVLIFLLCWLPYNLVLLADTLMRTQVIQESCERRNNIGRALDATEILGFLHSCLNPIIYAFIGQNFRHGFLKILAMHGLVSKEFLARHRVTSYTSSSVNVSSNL
The data set can be described thus: Selectivity: ILRA (CXCR-1) / IL8.

The target in data set [4] is T3, NPY Y1 (Homo sapiens, UniProt P25929).
T3 sequence (P25929 1-384): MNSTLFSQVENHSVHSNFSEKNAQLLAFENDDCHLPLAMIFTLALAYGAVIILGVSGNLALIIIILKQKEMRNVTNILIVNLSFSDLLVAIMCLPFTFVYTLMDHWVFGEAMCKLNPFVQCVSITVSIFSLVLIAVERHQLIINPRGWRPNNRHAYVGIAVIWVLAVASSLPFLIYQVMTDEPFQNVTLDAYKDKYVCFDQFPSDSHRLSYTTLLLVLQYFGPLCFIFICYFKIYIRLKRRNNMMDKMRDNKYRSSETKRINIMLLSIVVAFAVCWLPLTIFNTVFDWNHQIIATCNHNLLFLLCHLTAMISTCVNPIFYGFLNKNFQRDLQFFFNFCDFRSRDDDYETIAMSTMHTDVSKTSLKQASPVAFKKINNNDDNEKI
The data set can be described thus: Selectivity: NPY Y1.

The target of data set [5] is 5-HT7 (Homo sapiens, UniProt P34969). The data set can be described thus: Selectivity: 5-HT7.
Data set [6] in a line: Metabolism rate, pmol/min/mg at 1 μM, rat female. The class given is in vitro ADME. The note with it: 1 μM compound.
The nature of data set [7]: Metabolism rate, pmol/min/mg at 1 μM, monkey. Type of data set: in vitro ADME. Conditions: 1 μM compound.

SMILES strings stand for the structures. pIC50, pKi: −log10 of the molar value. Like-named read-outs stand apart in the source and are kept apart here. Where a SMILES comes first, the peptide text is derived from it. [ ]: non-standard residue; d: D form. The star is where a group is joined. dPhe(4-Cl) = N[C@H](Cc1ccc(Cl)cc1)C(=O)O; d2Nal = N[C@H](Cc1ccc2ccccc2c1)C(=O)O; Lys(iPr) = CC(C)NCCCC[C@H](N)C(=O)O; d3Pal = N[C@H](Cc1cccnc1)C(=O)O; Nicotinoyl = O=C(c1cccnc1)* Where only a bound is given, the exact number is not on record here.

Sequence of 5-HT2a (P28223 whole entry, species assumed): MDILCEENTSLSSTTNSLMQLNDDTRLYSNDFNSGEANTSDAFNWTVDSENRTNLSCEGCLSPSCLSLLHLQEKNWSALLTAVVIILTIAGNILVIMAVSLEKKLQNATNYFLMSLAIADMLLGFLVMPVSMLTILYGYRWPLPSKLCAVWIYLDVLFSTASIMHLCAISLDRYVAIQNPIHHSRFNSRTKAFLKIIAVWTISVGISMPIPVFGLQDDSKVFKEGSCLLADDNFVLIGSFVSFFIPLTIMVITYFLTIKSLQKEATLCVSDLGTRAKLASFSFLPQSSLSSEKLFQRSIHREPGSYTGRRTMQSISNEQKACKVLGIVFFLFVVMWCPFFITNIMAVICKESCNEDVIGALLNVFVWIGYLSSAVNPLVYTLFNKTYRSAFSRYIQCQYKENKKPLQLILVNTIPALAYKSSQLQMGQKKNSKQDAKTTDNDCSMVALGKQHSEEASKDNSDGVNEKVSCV
Sequence of 5-HT7 (P34969 whole entry, species assumed): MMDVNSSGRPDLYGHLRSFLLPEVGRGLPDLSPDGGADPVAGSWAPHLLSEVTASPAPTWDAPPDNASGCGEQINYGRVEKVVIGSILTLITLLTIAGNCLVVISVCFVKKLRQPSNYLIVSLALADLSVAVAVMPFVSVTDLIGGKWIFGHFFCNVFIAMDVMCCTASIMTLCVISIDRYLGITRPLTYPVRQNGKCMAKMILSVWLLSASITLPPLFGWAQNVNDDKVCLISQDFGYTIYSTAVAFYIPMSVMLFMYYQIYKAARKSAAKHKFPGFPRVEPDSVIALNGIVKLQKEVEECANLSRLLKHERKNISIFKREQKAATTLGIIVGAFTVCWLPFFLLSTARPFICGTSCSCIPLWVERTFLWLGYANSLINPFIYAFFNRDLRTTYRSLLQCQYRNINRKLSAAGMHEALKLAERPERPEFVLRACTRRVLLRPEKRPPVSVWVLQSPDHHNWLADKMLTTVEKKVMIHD

As for `CC(=O)N[C@H](Cc1ccc2ccccc2c1)C(=O)N[C@H](Cc1ccc(Cl)cc1)C(=O)N[C@H](Cc1cccnc1)C(=O)N[C@@H](CO)C(=O)N[C@@H](CCCCNC(=O)c1cccnc1)C(=O)N[C@H](CCCCNC(=O)c1cccnc1)C(=O)N[C@@H](CC(C)C)C(=O)N[C@@H](CCCCNC(C)C)C(=O)N1CCC[C@H]1C(=O)N[C@H](C)C(N)=O` [Antide, reference compound] (Ac-[d2Nal][dPhe(4-Cl)][d3Pal]SK(Nicotinoyl)[dK](Nicotinoyl)L[Lys(iPr)]P[dA]-NH2), the “stimulation of total [3H]inositol phosphates by compound alone” value in data set [1] (compound alone, no GnRH) is listed as “Neither compound alone stimulated an increase”. For the same compound, the “inhibition of GnRH-stimulated total inositol phosphate accumulation” value in data set [1] (half-maximal concentration of GnRH (1 nM)) is “able to inhibit the stimulation”.
Regarding `Cc1cc2c(cc1Cc1ccc(C(=O)NC[C@H]3CC[C@H](CNC(=N)N)CC3)o1)C(C)(C)CCC2(C)C` [Compound 10], the pKi (in general, −log10 of the Ki, conventionally taken in molar units) in data set [2] is 5.92; in data set [5] it was 5.90. Moreover, the negative logarithm of the IC50 (pIC50) – broadly, −log10 of the IC50, conventionally taken in molar units – is 5.19 in data set [3] and 5.01 in data set [4]. Also, the Kb in data set [1] worked out at 0.095 µM.
As to `Cc1cc2c(cc1Cc1ccc(C(=O)NCC3CCCC(CNc4nccc(NCC5CCCO5)n4)C3)o1)C(C)(C)CCC2(C)C` (stereo not shown) [Compound 11], the negative logarithm of the IC50 (pIC50) in data set [3] was < 5.00; in data set [4], 5.59. In data set [5], the negative logarithm of the Ki (pKi) is 5.74.
With `Cc1cc2c(cc1Cc1ccc(C(=O)NC[C@H]3CC[C@H](C(=O)O)CC3)o1)C(C)(C)CCC2(C)C` [Compound 12], the negative logarithm of the Ki (pKi) in data set [2] was < 5.40; in data set [5], < 5.35. The pIC50 in data set [3] and in data set [4] was < 5.00 in each case. Also, the Kb in data set [1] is 0.17 µM.
In the case of `Cc1cnc(CNC(=O)c2ccc(Cc3cc4c(cc3C)C(C)(C)CCC4(C)C)o2)cn1` [Compound 13], the pIC50 in data set [3] and in data set [4] was < 5.00 in each case. Further, in data set [5], the pKi was < 5.36. The compound further returned a Kb in data set [1] of 0.085 µM.
Regarding `COc1cccc(OC)c1NC(=O)c1ccc(Cc2cc3c(cc2C)C(C)(C)CCC3(C)C)o1` [Compound 20], the negative logarithm of the Ki (pKi) in data set [2] was 5.63; in data set [3] it was < 5.00; in data set [4], < 5.00; in data set [5], < 5.36. Further, the pIC50 in data set [3] and in data set [4] was < 5.00 in each case.
Take `Cc1cc2c(cc1Cc1ccc(C(=O)NCc3nc4ccccc4[nH]3)o1)C(C)(C)CCC2(C)C` [Compound 48]: the negative-log IC50 (pIC50) in data set [3] and in data set [4] was < 5.00 in each case. The “Rat female pmol/min/mg 1 μM” value in data set [6] worked out at 135 pmol/min/mg. In addition, the pKi in data set [5] is < 5.36. The GnRH functional entry in data set [1] is reported as “Antag- onist”.
As to `COc1cc(OC)c(NC(=O)c2ccc(Cc3cc4c(cc3C)C(C)(C)CCC4(C)C)o2)c(OC)c1` [Compound 134], the pKi in data set [2] is 5.43; in data set [5], < 5.36. For the same compound, the “Rat female pmol/min/mg 1 μM” value in data set [6] was 94 pmol/min/mg. Also, in data set [7], the “Monkey pmol/min/mg 1 μM” value stood at 9277 pmol/min/mg. In addition, the Kb in data set [1] (human, PI (inositol phosphates)) was 0.013 µM. The GnRH functional entry in data set [1] is “Antag- onist”.
For `Cc1cc2c(cc1Cc1ccc(C(=O)NCc3cccc(CNc4ccnc(NC[C@@H]5CCCO5)n4)c3)o1)C(C)(C)CCC2(C)C` [Compound 136], the “Rat female pmol/min/mg 1 μM” value in data set [6] came to 271 pmol/min/mg. Besides, the “Monkey pmol/min/mg 1 μM” value in data set [7] is given as 5959 pmol/min/mg. Moreover, in data set [5], the negative logarithm of the Ki (pKi) is 5.62. Besides, the GnRH functional result in data set [1] is “Antag- onist”.
In data set [2], `COc1cc(OC)c(NC(=O)c2ccc(Cc3cc4c(cc3OC)C(C)(C)CCC4(C)C)o2)c(OC)c1` [Compound 169] gave a pKi of 5.57. For the same compound, the “Monkey pmol/min/mg 1 μM” value in data set [7] worked out at 5940 pmol/min/mg. For the same compound, the GnRH functional entry in data set [1] is “Antag- onist”.
For `COc1cc(OC)c(NC(=O)c2ccc(Cc3cc4c(cc3C)C(C)(C)CCC4(C)C)o2)c(OC)c1C#N` [Compound 177], in data set [7], the “Monkey pmol/min/mg 1 μM” value is listed as 3120 pmol/min/mg. The GnRH functional entry in data set [1] is “Antag- onist”.
In the case of `COc1cc(OC)c(NC(=O)c2ccc(Cc3cc4c(cc3C)CCCC4(C)C)o2)c(OC)c1` [Compound 183], the “Rat female pmol/min/mg 1 μM” value in data set [6] stood at 64 pmol/min/mg. The GnRH functional result in data set [1] was “Antag- onist”.
Turning to `COc1cc(OC)c(NC(=O)c2ccc(Cc3cc(C(C)(C)C)ccc3C)o2)c(OC)c1` [Compound 200], the “Rat female pmol/min/mg 1 μM” value in data set [6] is recorded as 86 pmol/min/mg. In addition, in data set [1], the GnRH functional result is recorded as “Antag- onist”.
